# Biological target: Factor D (Homo sapiens (Human), UniProt P00746)
# Assay: biochemical
# Format: biochemical
# Conditions: read-out: IC50
# Chain of Factor D (P00746 26-253): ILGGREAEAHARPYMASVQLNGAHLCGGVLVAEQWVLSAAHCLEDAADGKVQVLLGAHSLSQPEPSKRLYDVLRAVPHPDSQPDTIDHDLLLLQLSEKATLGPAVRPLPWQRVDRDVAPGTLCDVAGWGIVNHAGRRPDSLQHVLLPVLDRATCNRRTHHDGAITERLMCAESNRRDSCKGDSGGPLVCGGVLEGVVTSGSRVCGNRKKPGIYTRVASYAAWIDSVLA
structure (smiles),measurement,value
"CCc1cc2c(C(N)=O)nn(CC(=O)N3C[C@H](F)C[C@H]3C(=O)Nc3cccc(OC(F)(F)F)c3F)c2cn1 [Example 715, 5-Ethyl-1-{2-[(2S,4R)-4-fluoro-2-(2-fluoro-3-trifluoromethoxy-phenylcarbamoyl)-pyrrolidin-1-yl]-2-oxo-ethyl}-1H-pyrazolo[3,4-c]pyridine-3-carboxylic acid amide]",IC50,27 nM
"NC(=O)c1cn(CC(=O)N2C[C@H](F)C[C@H]2C(=O)NCc2cccc(Cl)c2F)c2cc(OCCO)ccc12 [Example 594, 1-{2-[(2S,4R)-2-(3-Chloro-2-fluoro-benzylcarbamoyl)-4-fluoro-pyrrolidin-1-yl]-2-oxo-ethyl}-6-(2-hydroxy-ethoxy)-1H-indole-3-carboxylic acid amide]",IC50,85 nM
"CC(=O)c1cn(CC(=O)N2C[C@H](F)C[C@H]2C(=O)N[C@H](CO)c2cccc(Cl)c2F)c2ccccc12 [Example 518, (2S,4R)-1-[2-(3-Acetyl-indol-1-yl)-acetyl]-4-fluoro-pyrrolidine-2-carboxylic acid [(S)-1-(3-chloro-2-fluoro-phenyl)-2-hydroxy-ethyl]-amide]",IC50,41 nM
"NC(=O)n1cc(NC(=O)N2[C@@H]3C[C@@H]3C[C@H]2C(=O)Nc2cncc(Cl)c2)c2ccccc21 [Example 247, (1R,3S,5R)-2-Aza-bicyclo[3.1.0]hexane-2,3-dicarboxylic acid 2-[(1-carbamoyl-1H-indol-3-yl)-amide] 3-[(5-chloro-pyridin-3-yl)-amide]]",IC50,400 nM
"NC(=O)n1cc(NC(=O)N2C3CC3C[C@H]2C(=O)NCc2cnc(Cl)s2)c2ccccc21 (stereo partly drawn) [Example 295, (1R,3S,5R)-2-Aza-bicyclo[3.1.0]hexane-2,3-dicarboxylic acid 2-[(1-carbamoyl-1H-indol-3-yl)-amide] 3-[(2-chloro-thiazol-5-ylmethyl)-amide]]",IC50,150 nM
"CC(=O)c1cn(CC(=O)N2C[C@@H](N)[C@H](F)[C@H]2C(=O)NCc2cccc(Cl)c2F)c2ccccc12 [Example 576, (2R,3S,4R)-1-[2-(3-Acetyl-indol-1-yl)-acetyl]-4-amino-3-fluoro-pyrrolidine-2-carboxylic acid 3-chloro-2-fluoro-benzylamide]",IC50,400 nM
"CC(=O)c1cn(CC(=O)N2C[C@H](F)[C@@H](N)[C@H]2C(=O)NCc2cccc(Cl)c2F)c2ccccc12 [Example 575, (2S,3S,4S)-1-[2-(3-Acetyl-indol-1-yl)-acetyl]-3-amino-4-fluoro-pyrrolidine-2-carboxylic acid 3-chloro-2-fluoro-benzylamide]",IC50,843 nM
"NC(=O)n1cc(NC(=O)N2N=CC[C@@H]2C(=O)NCc2cccc(Cl)c2F)c2ccccc21 (single isomer, unassigned) [Example 363, R^§)-4,5-Dihydro-pyrazole-1,5-dicarboxylic acid 1-[(1-carbamoyl-1H-indol-3-yl)-amide]5-(3-chloro-2-fluoro-benzylamide]",IC50,9250 nM
"NC(=O)c1nn(CC(=O)N2[C@@H]3C[C@@H]3C[C@H]2C(=O)Nc2cccc(Br)n2)c2cc(Cl)ccc12 [Example 749, 1-{2-[(1R,3S,5R)-3-(6-Bromo-pyridin-2-ylcarbamoyl)-2-aza-bicyclo[3.1.0]hex-2-yl]-2-oxo-ethyl}-6-chloro-1H-indazole-3-carboxylic acid amide]",IC50,4 nM
"NC(=O)n1cc(NC(=O)N2C[C@H](F)C[C@H]2C(=O)NCc2cccc(Br)c2F)c2ccccc21 [Example 138, (2S,4R)-4-Fluoro-pyrrolidine-1,2-dicarboxylic acid 2-(3-bromo-2-fluoro-benzylamide) 1-[(1-carbamoyl-1H-indol-3-yl)-amide]]",IC50,9 nM
"CCN(CC)Cc1cc(Cl)c(F)c(CNC(=O)[C@@H]2C[C@@H](F)CN2C(=O)Nc2cn(C(N)=O)c3ccccc23)c1 [Example 12, (2S,4R)-4-Fluoro-pyrrolidine-1,2-dicarboxylic acid 1-[(1-carbamoyl-1H-indol-3-yl)-amide] 2-(3-chloro-5-diethylamino-methyl-2-fluoro-benzyl-amide)]",IC50,11100 nM
"NC(=O)n1cc(NC(=O)N2CCS[C@H]2C(=O)NCc2cccc(Cl)c2F)c2cc(OCCO)ccc21 [Example 380, S)-Thiazolidine-2,3-dicarboxylic acid 3-{[1-carbamoyl-5-(2-hydroxy-ethoxy)-1H-indol-3-yl]-amide}2-(3-chloro-2-fluoro-benzylamide]",IC50,17 nM
"NC(=O)n1cc(CC(=O)N2C[C@@H]3C[C@@H]3[C@H]2C(=O)N[C@H](CO)c2cccc(Cl)c2F)c2ccccc21 [Example 443, 3-(2-{(1S,2S,5R)-2-[(S)-1-(3-Chloro-2-fluoro-phenyl)-2-hydroxy-ethylcarbamoyl]-3-azabicyclo[3.1.0]hex-3-yl}-2-oxo-ethyl)-indole-1-carboxylic acid amide]",IC50,4470 nM
"Cc1cc2c(cn1)c(C(N)=O)nn2CC(=O)N1[C@@H]2C[C@@H]2C[C@H]1C(=O)NCc1cccc(Cl)c1F [Example 653, 1-{2-[(1R,3S,5R)-3-(3-Chloro-2-fluoro-benzylcarbamoyl)-2-aza-bicyclo[3.1.0]hex-2-yl]-2-oxo-ethyl}-6-methyl-1H-pyrazolo[4,3-c]pyridine-3-carboxylic acid amide]",IC50,47 nM
"NC(=O)n1cc(NC(=O)N2CC[C@H](F)[C@H]2C(=O)NCc2cccc(Cl)c2F)c2ccccc21 [Example 208, (2R,3S)-3-Fluoro-pyrrolidine-1,2-dicarboxylic acid 1-[(1-carbamoyl-1H-indol-3-yl)-amide] 2-(3-chloro-2-fluoro-benzylamide)]",IC50,29 nM
"NC(=O)n1cc(NC(=O)N2[C@H]3C[C@@]3(CO)C[C@H]2C(=O)NCc2cccc(Cl)c2F)c2ccccc21 [Example 357, 1S,3S,5R)-5-Hydroxymethyl-2-aza-bicyclo[3.1.0]hexane-2,3-dicarboxylic acid 2-[(1-carbamoyl-1H-indol-3-yl)-amide]3-(3-chloro-2-fluoro-benzylamide]",IC50,389 nM
"CC[C@@H]1CC[C@@H](C(=O)NCc2cccc(Cl)c2F)N1C(=O)Nc1cn(C(N)=O)c2ccccc12 [Example 351, 2S,5R)-5-Ethyl-pyrrolidine-1,2-dicarboxylic acid 1-[(1-carbamoyl-1H-indol-3-yl)-amide]2-(3-chloro-2-fluoro-benzylamide]",IC50,600 nM
"CO[C@H]1C[C@@H](C(=O)Nc2cccc(OC(F)(F)F)c2)N(C(=O)Nc2cn(C(N)=O)c3ccccc23)C1 [Example 128, (2S,4S)-4-Methoxy-pyrrolidine-1,2-dicarboxylic acid 1-[(1-carbamoyl-1H-indol-3-yl)-amide] 2-[(3-trifluoromethoxy-phenyl)-amide]]",IC50,2000 nM
"NC[C@H]1C[C@@H](C(=O)Nc2cccc(OC(F)(F)F)c2)N(C(=O)Nc2cn(C(N)=O)c3ccccc23)C1 [Example 403, (2S,4R)-4-Aminomethyl-pyrrolidine-1,2-dicarboxylic acid 1-[(1-carbamoyl-1H-indol-3-yl)-amide]2-[(3-trifluoromethoxy-phenyl)-amide]]",IC50,1000 nM
"NC(=O)n1cc(NC(=O)N2C[C@@H](C(F)(F)F)C[C@H]2C(=O)NCc2cccc(Cl)c2F)c2ccccc21 [Example 147, (2S,4S)-4-Trifluoromethyl-pyrrolidine-1,2-dicarboxylic acid 1-[(1-carbamoyl-1H-indol-3-yl)-amide] 2-(3-chloro-2-fluoro-benzylamide)]",IC50,120 nM
"Cc1nccc2c(C(N)=O)nn(CC(=O)N3[C@@H]4C[C@@H]4C[C@H]3C(=O)Nc3cccc(Br)n3)c12 [Example 747, 1-{2-[(1R,3S,5R)-3-(6-Bromo-pyridin-2-ylcarbamoyl)-2-aza-bicyclo[3.1.0]hex-2-yl]-2-oxo-ethyl}-7-methyl-1H-pyrazolo [3,4-c]pyridine-3-carboxylic acid amide]",IC50,13 nM
"NC(=O)n1cc(NC(=O)N2C3CC3C[C@H]2C(=O)NCc2cccc(Cl)c2F)c2ccc(OCCO)cc21 (stereo partly drawn) [Example 395, 1R,3S,5R)-2-Aza-bicyclo[3.1.0]hexane-2,3-dicarboxylic acid 2-{[1-carbamoyl-6-(2-hydroxy-ethoxy)-1H-indol-3-yl]-amide}3-(3-chloro-2-fluoro-benzylamide]",IC50,25 nM
"NC(=O)n1cc(NC(=O)N2C[C@@H](N)C[C@H]2C(=O)NCCc2cccc(F)c2)c2ccccc21 [Example 89, (2S,4S)-4-Amino-pyrrolidine-1,2-dicarboxylic acid 1-[(1-carbamoyl-1Hindol-3-yl)-amide] 2-{[2-(3-fluoro-phenyl)-ethyl]-amide}]",IC50,7700 nM
"NC(=O)c1nn(CC(=O)N2[C@@H]3C[C@@H]3C[C@H]2C(=O)Nc2cccc(OC(F)(F)F)c2F)c2ccncc12 [Example 709, 1-(2-((1R,3S,5R)-3-(2-fluoro-3-(trifluoromethoxy)phenylcarbamoyl)-2-azabicyclo[3.1.0]hexan-2-yl)-2-oxoethyl)-1H-pyrazolo[4,3-c] pyridine-3-carboxamide]",IC50,144 nM
"CC(=O)c1cn(CC(=O)N2[C@@H]3C[C@@H]3C[C@H]2C(=O)NCc2cccc(Cl)c2F)c2ccc(C(=N)N(C)C)cc12 [Example 615, (1R,3S,5R)-2-{2-[3-Acetyl-5-(N,N-dimethyl-carbamimidoyl)-indol-1-yl]-acetyl}-2-aza-bicyclo[3.1.0]hexane-3-carboxylic acid 3-chloro-2-fluoro-benzylamide]",IC50,42 nM
"NC(=O)n1cc(CC(=O)N2[C@H](C(=O)NCc3cccc(Cl)c3F)C[C@@]3(CO)C[C@@H]23)c2ccccc21 [Example 467, 3-{2-[(1R,3S,5S)-3-(3-Chloro-2-fluoro-benzylcarbamoyl)-5-hydroxymethyl-2-aza-bicyclo[3.1.0]hex-2-yl]-2-oxo-ethyl}-indole-1-carboxylic acid amide]",IC50,47 nM
"NC(=O)n1cc(NC(=O)N2[C@@H]3C[C@@H]3C[C@H]2C(=O)NCc2cccc(Cl)c2F)c2cc(OCCO)ccc21 [Example 379, (1R,3S,5R)-2-aza-bicyclo[3.1.0]hexane-2,3-dicarboxylic acid 2-{[1-carbamoyl-5-(2-hydroxy-ethoxy)-1H-indol-3-yl]-amide}3-(3-chloro-2-fluoro-benzylamide)]",IC50,5 nM
"NCc1ccc(-c2cccc(NC(=O)[C@@H]3CCCN3C(=O)Nc3cn(C(N)=O)c4ccccc34)c2)c(F)c1 [Example 401, (S)-Pyrrolidine-1,2-dicarboxylic acid 2-[(4′-aminomethyl-2′-fluoro-biphenyl-3-yl)-amide]1-[(1-carbamoyl-1H-indol-3-yl)-amide]]",IC50,1050 nM
